According to the Kinase Knowledgebase extract (Sharma et al. 2016):

Each compound was assayed against EGFR (human) (UniProt P00533). Settings: A431.
EGFR (human), sequence (P00533 whole entry, looked up): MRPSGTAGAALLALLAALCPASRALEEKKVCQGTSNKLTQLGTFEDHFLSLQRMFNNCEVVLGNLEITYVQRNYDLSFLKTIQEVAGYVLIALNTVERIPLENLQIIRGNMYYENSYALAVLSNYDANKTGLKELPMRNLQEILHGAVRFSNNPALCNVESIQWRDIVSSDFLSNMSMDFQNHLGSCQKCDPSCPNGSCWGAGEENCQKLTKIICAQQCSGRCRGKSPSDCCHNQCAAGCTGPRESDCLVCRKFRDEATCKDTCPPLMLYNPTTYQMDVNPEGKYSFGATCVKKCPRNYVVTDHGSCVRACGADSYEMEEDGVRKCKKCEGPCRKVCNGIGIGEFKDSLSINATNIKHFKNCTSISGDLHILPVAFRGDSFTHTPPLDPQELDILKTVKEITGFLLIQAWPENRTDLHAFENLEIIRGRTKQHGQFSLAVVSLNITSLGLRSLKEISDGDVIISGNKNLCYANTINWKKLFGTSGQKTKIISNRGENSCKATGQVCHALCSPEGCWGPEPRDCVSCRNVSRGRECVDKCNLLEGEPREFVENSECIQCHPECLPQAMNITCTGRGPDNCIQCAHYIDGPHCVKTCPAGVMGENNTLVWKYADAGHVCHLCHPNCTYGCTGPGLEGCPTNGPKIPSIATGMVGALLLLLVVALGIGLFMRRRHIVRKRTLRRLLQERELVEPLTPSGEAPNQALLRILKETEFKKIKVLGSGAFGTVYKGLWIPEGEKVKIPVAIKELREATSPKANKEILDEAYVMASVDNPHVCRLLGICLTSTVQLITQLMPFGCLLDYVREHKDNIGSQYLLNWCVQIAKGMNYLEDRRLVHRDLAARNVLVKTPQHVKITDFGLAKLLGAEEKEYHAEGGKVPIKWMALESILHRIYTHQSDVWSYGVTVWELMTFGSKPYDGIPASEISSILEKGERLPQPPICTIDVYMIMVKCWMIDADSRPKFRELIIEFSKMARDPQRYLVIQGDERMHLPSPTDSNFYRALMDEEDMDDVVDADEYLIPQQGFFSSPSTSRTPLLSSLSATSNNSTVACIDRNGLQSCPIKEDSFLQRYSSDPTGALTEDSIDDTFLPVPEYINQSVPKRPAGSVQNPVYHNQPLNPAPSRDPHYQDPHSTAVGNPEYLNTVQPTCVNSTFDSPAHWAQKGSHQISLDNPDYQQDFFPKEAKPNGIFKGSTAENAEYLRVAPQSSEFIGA

IC50	SMILES
3000 nM	CCOc1cc(/C=C(\C#N)C(N)=O)cc(CSc2c(F)c(F)c(F)c(F)c2F)c1O
9800 nM	CC(C)c1cc(CC(C#N)C(N)=O)cc(C(C)C)c1O (stereo unspecified)
750 nM	N#C/C(=C\c1cc(CSc2ccccc2)c(O)c(OCc2ccccc2)c1)C(N)=O
2200 nM	CCOc1cc(/C=C(\C#N)C(N)=O)cc(CSc2ccc(C)cc2)c1O
370 nM	N#C/C(=C\c1cc(-c2ccccc2)c(O)c(-c2ccccc2)c1)C(N)=O
46000 nM	CC(C)(C)c1cc(/C=C(\C#N)C(N)=O)cc(C(C)(C)C)c1O
600 nM	N#C/C(=C\c1cc(Cc2ccccc2)c(O)c(Cc2ccccc2)c1)C(N)=O
4000 nM	CCOc1cc(/C=C(\C#N)C(N)=O)cc(CSc2cccc(OC)c2)c1O
1100 nM	CC(C)c1cc(/C=C(\C#N)C(N)=O)cc(C(C)C)c1O
2800 nM	CCOc1cc(/C=C(\C#N)C(N)=O)cc(CSc2ccc(O)cc2)c1O
530 nM	COc1cc(/C=C(\C#N)C(N)=O)cc(CSc2ccccc2)c1O
370 nM	CCOc1cc(/C=C(\C#N)C(N)=O)cc(CSc2ccccc2)c1O

Same assay, conditions: A431; concentration not given here

inhibition	SMILES
41%	CCOc1cc(/C=C(\C#N)C(N)=O)cc(CSc2c(F)c(F)c(F)c(F)c2F)c1O
18%	CCOc1cc(/C=C(\C#N)C(N)=O)cc(CSc2ccccc2)c1OC
24%	CCOc1cc(/C=C(\C#N)C(N)=O)cc(CSc2ccccc2)c1OC(C)=O
0%	CCOc1cc(/C=C(\C#N)C(N)=O)cc(CSc2ccc(C(C)(C)C)cc2)c1O
0%	CCOc1cc(/C=C(\C#N)C(N)=O)cc(CSc2ccccc2OC)c1O
47%	CCOc1cc(/C=C(\C#N)C(N)=O)cc(CSc2ccc(C)cc2)c1O
0%	CCOc1cc(/C=C(\C#N)C(N)=O)cc(CSc2cccc(Cl)c2)c1O
0%	CCOc1cc(/C=C(\C#N)C(N)=O)cc(CSc2ccc(Br)cc2)c1O
0%	CCOc1cc(/C=C(\C#N)C(N)=O)cc(CSc2ccc([N+](=O)[O-])cc2)c1O
18%	CCOc1cc(/C=C(\C#N)C(N)=O)cc(COc2ccccc2)c1O
17%	CCOc1cc(/C=C(\C#N)C(N)=O)cc(CSc2cccc(OC)c2)c1O
0%	CCOc1cc(/C=C(\C#N)C(N)=O)cc(CSc2ccc(Cl)c(Cl)c2)c1O
30%	CCOc1cc(/C=C(\C#N)C(N)=O)cc(CSc2ccc(O)cc2)c1O
20%	CCOc1cc(/C=C(\C#N)C(N)=O)cc(CSc2ccccc2)c1OC(=O)c1ccccc1
